Measured values taken from US20230066156A1, “6-SUBSTITUTED, 22-CYANO HYODEOXYCHOLANIC ANALOGUES AND USES THEREOF” (PRECISION BIO-THERAPEUTICS S.R.L., priority 2019, published 2023).

Test system: THP1 cells
Experiment: Relative mRNA expression of pro- and anti-inflammatory genes by Real-Time PCR in LPS-activated THP1 cells
Type: cell-based, human
Conditions: 10 μM, normalized to GAPDH, FIG. 1
Protocol: THP-1, a human monocytic cell line derived from an acute monocytic leukemia patient, were cultured and maintained at 37° C. and 5% CO2 in RPMI with 10% FBS, 1% glutamine and 1% penicillin/streptomycin. THP1 cells (1.5×10^6) were serum starved for 6 h and then classically activated with LPS (1 ng/ml, L2880; Sigma-Aldrich), and exposed or not to GPBAR1 agonists previously tested in transactivation assay.
Furthermore, selected compounds exert in vitro activity on GPBAR1-target genes reducing the production of pro-inflammatory cytokines (IL-6, TNF-α, IL-1β, […]) in THP1 monocytic/macrophage cells primed with LPS and co-incubated with or without the selected compounds at 10 μM (FIG. 1).
Values are normalized relative to GAPDH mRNA and are expressed as mean±SEM (n=3); #p<0.05.
Colon samples were immediately frozen in liquid nitrogen and stored at −80° C. until used, mechanically homogenated with the aid of a pestle, and the obtained materials re-suspended in 1 ml of Trizol (Thermo Scientific™). THP1 cells were spin-dried at 1300 rpm and then the pellets were re-suspended in 1 ml of Trizol (Thermo Scientific™). The RNA was extracted according to the manufacturer's protocol. After purification from genomic DNA by DNase-I treatment (Thermo Scientific™), 1 μg of RNA from each sample was reverse-transcribed using random hexamer primers with Superscript-II (Thermo Scientific™) in a 20 μL reaction volume; 10 ng cDNA were amplified in a 20 μL solution containing 200 nM of each primer and 10 μL of SYBR Select Master Mix (Thermo Scientific™). All reactions were performed in triplicate, and the thermal cycling conditions were as follows: 3 min at 95° C., followed by 40 cycles of 95° C. for 15 s, 56° C. for 20 s and 72° C. for 30 s, using a Step One Plus machine (Applied Biosystem). The relative mRNA expression was calculated accordingly to the 2^(−ΔCt) method comparing the expression of different genes to that of GAPDH housekeeping. Primers were designed using the software PRIMER3 (http://frodo.wi.mit.edu/primer3/) using published data obtained from the NCBI database. The primer used for murine samples were conducted as follows (forward and reverse): Gapdh (for […] (SEQ ID: 1); rev […] (SEQ ID: 2)), Tnf-α (for […] (SEQ ID: 3); rev […] (SEQ ID: 4)), Il-6 (for […] (SEQ ID: 5); rev […] (SEQ ID: 6)), Il-1β (for […] (SEQ ID: 7); rev […] (SEQ ID: 8)), Il-10 (for […] (SEQ ID: 9); rev […] (SEQ ID: 10)), Gpbar1 (for […] (SEQ ID: 11); rev […] (SEQ ID: 12)). […]

SMILES: CC[C@]1(O)C[C@H]2[C@@H]3CC[C@H]([C@H](C)CC#N)[C@@]3(C)CC[C@@H]2[C@@]2(C)CC[C@@H](O)C[C@@H]12 [PBT110B, 3α,6α-dihydroxy-6β-ethyl-24-nor-5β-cholan-23-nitrile]
- IL1-β production (relative mRNA expression): significantly reduced
- IL-6 production (relative mRNA expression): significantly reduced
- TNF-α production (relative mRNA expression): significantly reduced
- expression of anti-inflammatory gene IL-10: increased
